Experimental data taken from PubChem BioAssay AID1259411 (Chemical Carcinogenesis Research Information System (CCRIS), 2018).
Calls of active or inactive are those of the source. No rule for the calls is given here.

System: rodent carcinogenicity bioassays, tumor incidence
Assay: CCRIS carcinogenicity studies
Details: Dose: 0
Procedure, shortened: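 Archive of carcinogenicity, mutagenicity, tumor promotion and tumor inhibition results drawn from journals, NCI reports and other sources, expert-reviewed; covers 1985-2011 and is no longer updated.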

Measured: carcinogen call

C=CC#N
inactive: Species: RAT, Strain/Sex: SPRAGUE-DAWLEY/FEMALE, Route: GAVAGE, 5 MG/KG IN OLIVE OIL 1/D 3 D/WK FOR 52 WK (STUDY DURATION: LIFETIME) inactive; negative | Species: RAT, Strain/Sex: SPRAGUE-DAWLEY/FEMALE, Route: INHALATION, 60 PPM 4 HR/D 5 D/WK FOR 7 WK THEN 7 HR/D 5 D/WK FOR 8 WK ADMINISTRATION STARTED WITH EMBRYOS ON 12TH DAY OF GESTATIO inactive; negative | Species: RAT, Strain/Sex: SPRAGUE-DAWLEY/MALE, Route: GAVAGE, 5 MG/KG BW IN OLIVE OIL 3/WK FOR 52 WK (STUDY DURATION: LIFETIME), Tumor Site: Type of Lesion: [BRAIN WAS ONLY SITE EVALUATED] inactive; negative | Species: RAT, Strain/Sex: SPRAGUE-DAWLEY/MALE, Route: GAVAGE, 5 MG/KG IN OLIVE OIL 1/D 3 D/WK FOR 52 WK (STUDY DURATION: LIFETIME) inactive; negative | Species: RAT, Strain/Sex: SPRAGUE-DAWLEY/MALE, Route: INHALATION, 60 PPM 4 HR/D 5 D/WK FOR 7 WK THEN 7 HR/D 5 D/WK FOR 8 WK ADMINISTRATION STARTED WITH EMBRYOS ON 12TH DAY OF GESTATIO inactive; negative
active: Species: RAT, Strain/Sex: SPRAGUE-DAWLEY/FEMALE, Route: INHALATION, 60 PPM 4 HR/D 5 D/WK FOR 7 WK THEN 7 HR/D 5 D/WK FOR 97 WK ADMINISTRATION STARTED WITH EMBRYOS ON DAY 12 OF GESTATION, Tumor Site: Type of Lesion: MAMMARY GLAND: TUMORS, LIVER: ANGIOSARCOMA, BRAIN: GLIOMA, Tumor Site: Type of Lesion: MAMMARY GLAND: TUMORS, LIVER: ANGIOSARCOMA, BRAIN: GLIOMA active; positive | Species: RAT, Strain/Sex: SPRAGUE-DAWLEY/FEMALE, Route: ORAL, 1, 100 PPM IN DRINKING WATER FOR 22 MO (STUDY DURATION: 20 MO), 1, 100 PPM IN DRINKING WATER FOR 22 MO (STUDY DURATION: 20 MO), Tumor Site: Type of Lesion: BRAIN: ASTROCYTOMA, ZYMBAL'S GLAND/EAR CANAL: ADENOMA OR CARCINOMA, FORESTOMACH: SQUAMOUS CELL PAPILLOMA/PAPILLOMA OR SQ, Tumor Site: Type of Lesion: BRAIN: ASTROCYTOMA, ZYMBAL'S GLAND/EAR CANAL: ADENOMA OR CARCINOMA, FORESTOMACH: SQUAMOUS CELL PAPILLOMA/PAPILLOMA OR SQ active; positive | Species: RAT, Strain/Sex: SPRAGUE-DAWLEY/MALE, Route: GAVAGE, 0.1, 10 MG/KG/D 7D/WK FOR 20 MO (STUDY DURATION: 20 MO), 0.1, 10 MG/KG/D 7D/WK FOR 20 MO (STUDY DURATION: 20 MO), Tumor Site: Type of Lesion: BRAIN: ASTROCYTOMA, ZYMBAL'S GLAND/EAR CANAL: CARCINOMA, FORESTOMACH: SQUAMOUS CELL PAPILLOMA/PAPILLOMA, SQUAMOUS CELL C, Tumor Site: Type of Lesion: BRAIN: ASTROCYTOMA, ZYMBAL'S GLAND/EAR CANAL: CARCINOMA, FORESTOMACH: SQUAMOUS CELL PAPILLOMA/PAPILLOMA, SQUAMOUS CELL C active; positive | Species: RAT, Strain/Sex: SPRAGUE-DAWLEY/MALE, Route: INHALATION, 60 PPM 4 HR/D 5 D/WK FOR 7 WK THEN 7 HR/D 5 D/WK FOR 97 WK ADMINISTRATION STARTED WITH EMBRYOS ON DAY 12 OF GESTATION, Tumor Site: Type of Lesion: ZYMBAL GLAND: CARCINOMA, LIVER: HEPATOMA, BRAIN: GLIOMA, Tumor Site: Type of Lesion: ZYMBAL GLAND: CARCINOMA, LIVER: HEPATOMA, BRAIN: GLIOMA active; positive | Species: RAT, Strain/Sex: SPRAGUE-DAWLEY/MALE, Route: ORAL, 1, 100 PPM IN DRINKING WATER FOR 22 MO (STUDY DURATION: 20 MO), 1, 100 PPM IN DRINKING WATER FOR 22 MO (STUDY DURATION: 20 MO), Tumor Site: Type of Lesion: BRAIN: ASTROCYTOMA, ZYMBAL'S GLAND/EAR CANAL: ADENOMA OR CARCINOMA, FORESTOMACH: SQUAMOUS CELL PAPILLOMA/PAPILLOMA OR SQ, Tumor Site: Type of Lesion: BRAIN: ASTROCYTOMA, ZYMBAL'S GLAND/EAR CANAL: ADENOMA OR CARCINOMA, FORESTOMACH: SQUAMOUS CELL PAPILLOMA/PAPILLOMA OR SQ active; positive | Species: RAT, Strain/Sex: SPRAGUE-DAWLEY/MALE, Route: ORAL, 20, 100, 500 PPM IN DRINKING WATER FOR DURATION OF STUDY (STUDY DURATION: 2 YR), 20, 100, 500 PPM IN DRINKING WATER FOR DURATION OF STUDY (STUDY DURATION: 2 YR), Tumor Site: Type of Lesion: ZYMBAL'S GLAND: TUMOR active; positive | Species: Rat, Strain/Sex: Sprague Dawley/Female (80/group, Controls; 48/group, Experimental), Route: Oral, 35, 100, 300 ppm (0; 4.4; 10.8; 25.0 mg/kg) in drinking water for 2 yr, 35, 100, 300 ppm (0; 4.4; 10.8; 25.0 mg/kg) in drinking water for 2 yr, Tumor Site: Type of Lesion: Nervous system (brain and spinal cord): Combined focal or multifocal glial cell proliferation and/or astrocytoma (1/80 active; positive | Species: Rat, Strain/Sex: Sprague Dawley/Male (80/group, Controls; 48/group, Experimental), Route: Oral, 35, 100, 300 ppm (0; 3.4; 8.5; 21.3 mg/kg in drinking water for 2 yr), 35, 100, 300 ppm (0; 3.4; 8.5; 21.3 mg/kg in drinking water for 2 yr), Tumor Site: Type of Lesion: Nervous system (brain and spinal cord): Combined focal or multifocal glial cell proliferation and/or astrocytoma (1/80 active; positive
